Measured values as given in ChEMBL document CHEMBL1201862, “PubChem BioAssay data set” (2004).
The source made the active and inactive calls.

Tests used:
[1] = target: T1, High affinity choline transporter 1 (Homo sapiens, UniProt Q9GZV3); test: CHT inhibitors, dose response, cell-based, 5-point CRC, membrane potential dye (AID 504840); type: functional
T1 sequence (Q9GZV3 whole entry): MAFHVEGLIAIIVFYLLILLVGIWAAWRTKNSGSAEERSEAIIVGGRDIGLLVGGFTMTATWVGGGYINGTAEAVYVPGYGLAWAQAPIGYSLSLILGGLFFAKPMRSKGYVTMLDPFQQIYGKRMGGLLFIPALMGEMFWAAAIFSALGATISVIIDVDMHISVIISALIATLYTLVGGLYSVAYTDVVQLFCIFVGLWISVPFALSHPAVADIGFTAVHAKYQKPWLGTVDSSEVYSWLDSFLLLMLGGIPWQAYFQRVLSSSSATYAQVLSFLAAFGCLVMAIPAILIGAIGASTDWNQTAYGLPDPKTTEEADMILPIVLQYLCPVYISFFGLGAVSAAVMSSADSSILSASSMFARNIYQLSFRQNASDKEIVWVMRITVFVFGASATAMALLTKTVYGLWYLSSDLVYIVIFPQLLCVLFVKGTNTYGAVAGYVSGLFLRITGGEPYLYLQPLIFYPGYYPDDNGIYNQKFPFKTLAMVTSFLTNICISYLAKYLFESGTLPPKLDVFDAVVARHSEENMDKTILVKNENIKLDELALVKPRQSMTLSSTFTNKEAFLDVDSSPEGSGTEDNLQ

[2] = test system: INS1; test: beta cell apoptosis inhibitors, cytokine rescue, dose response, luminescence, retest (AID 449756); type: functional, cell-based; conditions: Rattus norvegicus;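 further: cell death triggered by IL-1 beta plus TNF-alpha plus IFN-gamma mixture; protective hits raise ATP signal compared with cytokine alone wells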
[3] = target: Protein Wnt-3a (Mus musculus, UniProt P27467); test: Wnt3a-driven reporter signaling inhibition, dose response, selectivity assay for Gli-SUFU antagonist project, Wnt-LIGHT cells, luminescence (AID 651570); type: functional; conditions: read-out: IC50_Mean;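 further: Wnt-LIGHT reporter cells stimulated with conditioned medium from Wnt3a-producing cells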
Protein Wnt-3a, sequence (P27467 whole entry): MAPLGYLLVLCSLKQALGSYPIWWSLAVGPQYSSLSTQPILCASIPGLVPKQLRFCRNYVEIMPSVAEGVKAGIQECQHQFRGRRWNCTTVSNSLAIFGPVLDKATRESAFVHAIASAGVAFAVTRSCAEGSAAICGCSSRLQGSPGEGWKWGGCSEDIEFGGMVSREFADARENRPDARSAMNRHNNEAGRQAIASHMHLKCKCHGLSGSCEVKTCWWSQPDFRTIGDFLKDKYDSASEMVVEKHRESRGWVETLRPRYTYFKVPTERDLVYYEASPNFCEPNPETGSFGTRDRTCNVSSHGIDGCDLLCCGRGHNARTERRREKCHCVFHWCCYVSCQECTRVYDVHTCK

[4] = NIH-3T3 fibroblast cytotoxicity, dose response, cytotoxicity control, cell-based, fluorescence, Alamar Blue, secondary assay (AID 2327); type: functional;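 further: NIH-3T3 mouse fibroblasts cultured with fluconazole at 8 µg/mL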
[5] = C. albicans growth with fluconazole, confirmation, fluorescence, retest (AID 2467); type: functional, cell-based
[6] = target: T2, Serine/threonine-protein phosphatase (Candida dubliniensis (strain CD36 / CBS 7987 / NCPF 3949 / NRRLY-17841) (Yeast), UniProt B9W6M3); test: calcineurin pathway inhibitors in yeast reporter, dose response, S. cerevisiae, CDRE-lacZ, luminescence, secondary (AID 2388); type: functional, cell-based;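 further: yeast reporter cells carrying a calcineurin-responsive lacZ construct stimulated with calcium chloride; luminescent beta-galactosidase reporter signal in whole cells rather than isolated phosphatase activity; potency for inhibition where a drop in reporter signal means calcineurin blockade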
T2 sequence (B9W6M3 whole entry): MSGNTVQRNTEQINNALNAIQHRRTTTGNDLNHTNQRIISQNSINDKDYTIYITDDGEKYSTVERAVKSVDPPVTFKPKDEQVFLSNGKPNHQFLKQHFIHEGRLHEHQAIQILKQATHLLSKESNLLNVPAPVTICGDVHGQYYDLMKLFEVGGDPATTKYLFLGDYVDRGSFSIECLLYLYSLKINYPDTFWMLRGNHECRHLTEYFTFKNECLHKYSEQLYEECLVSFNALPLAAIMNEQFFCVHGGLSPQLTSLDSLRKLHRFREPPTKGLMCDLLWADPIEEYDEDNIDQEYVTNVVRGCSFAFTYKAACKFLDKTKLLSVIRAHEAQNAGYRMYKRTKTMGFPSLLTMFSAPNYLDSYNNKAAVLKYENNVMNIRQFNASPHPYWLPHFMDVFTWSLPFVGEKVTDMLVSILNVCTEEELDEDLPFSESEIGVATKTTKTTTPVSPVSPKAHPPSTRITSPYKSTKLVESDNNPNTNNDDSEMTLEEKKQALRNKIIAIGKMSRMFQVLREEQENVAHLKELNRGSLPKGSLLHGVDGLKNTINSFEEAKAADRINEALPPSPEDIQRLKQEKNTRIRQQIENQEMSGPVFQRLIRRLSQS

[7] = target: ATP-dependent molecular chaperone HSP82 (Candida albicans (strain WO-1) (Yeast), UniProt C4YTQ8); test: loss of DOC-induced GRE-beta-galactosidase reporter signal, dose response, Hsp90 inhibitor project, S. cerevisiae, luminescence (AID 2400); type: functional, cell-based;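 further: beta-galactosidase luminescence from glucocorticoid response element reporter as proxy for Hsp90 function; inhibitor potency where signal loss means Hsp90 inhibition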
ATP-dependent molecular chaperone HSP82, sequence (C4YTQ8 whole entry): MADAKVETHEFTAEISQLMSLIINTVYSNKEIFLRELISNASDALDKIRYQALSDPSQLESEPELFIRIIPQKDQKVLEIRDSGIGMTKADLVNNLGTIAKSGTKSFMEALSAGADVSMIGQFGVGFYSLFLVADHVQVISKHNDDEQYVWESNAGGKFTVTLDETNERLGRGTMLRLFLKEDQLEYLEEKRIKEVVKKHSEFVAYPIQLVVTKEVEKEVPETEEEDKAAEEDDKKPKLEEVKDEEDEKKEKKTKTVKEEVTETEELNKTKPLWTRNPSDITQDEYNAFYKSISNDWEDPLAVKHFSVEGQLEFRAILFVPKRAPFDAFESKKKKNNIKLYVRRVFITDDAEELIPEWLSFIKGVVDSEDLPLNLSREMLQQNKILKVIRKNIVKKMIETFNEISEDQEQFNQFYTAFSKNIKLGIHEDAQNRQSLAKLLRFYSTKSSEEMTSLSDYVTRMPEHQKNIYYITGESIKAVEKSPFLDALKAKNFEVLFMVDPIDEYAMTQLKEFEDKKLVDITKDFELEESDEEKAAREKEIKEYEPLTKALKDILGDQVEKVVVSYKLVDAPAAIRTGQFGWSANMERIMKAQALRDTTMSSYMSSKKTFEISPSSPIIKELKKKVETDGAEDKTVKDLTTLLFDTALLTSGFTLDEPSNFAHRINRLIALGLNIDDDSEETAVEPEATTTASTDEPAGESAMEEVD

[8] = target: Cytochrome P450 3A4 (Homo sapiens, UniProt P08684);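 further: CYP3A4 tested as one member of a cytochrome P450 panel screen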
Cytochrome P450 3A4, sequence (P08684 whole entry): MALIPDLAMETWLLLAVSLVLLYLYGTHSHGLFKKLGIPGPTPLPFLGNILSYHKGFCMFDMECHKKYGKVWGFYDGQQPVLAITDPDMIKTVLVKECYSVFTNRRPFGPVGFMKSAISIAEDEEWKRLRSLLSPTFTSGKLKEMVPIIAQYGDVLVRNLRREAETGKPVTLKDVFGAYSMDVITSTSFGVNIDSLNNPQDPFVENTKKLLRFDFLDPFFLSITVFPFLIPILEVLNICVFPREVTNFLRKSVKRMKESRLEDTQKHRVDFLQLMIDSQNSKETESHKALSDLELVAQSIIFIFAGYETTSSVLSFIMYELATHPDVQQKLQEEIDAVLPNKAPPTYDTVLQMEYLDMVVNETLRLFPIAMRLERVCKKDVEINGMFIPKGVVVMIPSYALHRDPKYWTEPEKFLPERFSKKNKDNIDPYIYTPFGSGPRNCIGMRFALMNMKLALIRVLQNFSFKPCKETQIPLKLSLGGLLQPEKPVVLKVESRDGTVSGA

[9] = target: T3, Cytochrome P450 2C9 (Homo sapiens, UniProt P11712)
T3 sequence (P11712 whole entry): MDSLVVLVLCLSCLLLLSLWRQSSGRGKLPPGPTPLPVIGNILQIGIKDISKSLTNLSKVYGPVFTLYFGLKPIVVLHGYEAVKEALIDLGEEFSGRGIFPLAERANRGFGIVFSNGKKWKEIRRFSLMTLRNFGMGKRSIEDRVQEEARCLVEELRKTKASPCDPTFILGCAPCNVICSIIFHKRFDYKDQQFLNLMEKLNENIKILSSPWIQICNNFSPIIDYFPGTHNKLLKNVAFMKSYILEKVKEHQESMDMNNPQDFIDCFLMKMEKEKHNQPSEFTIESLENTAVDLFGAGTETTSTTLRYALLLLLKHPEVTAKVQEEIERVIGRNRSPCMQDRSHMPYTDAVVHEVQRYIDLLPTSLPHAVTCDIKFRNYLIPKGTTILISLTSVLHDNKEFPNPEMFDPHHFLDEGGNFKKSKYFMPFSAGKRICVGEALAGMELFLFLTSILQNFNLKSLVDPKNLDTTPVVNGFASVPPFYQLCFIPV

[10] = target: FAD-linked sulfhydryl oxidase ALR (Homo sapiens, UniProt P55789); test: inhibitors of human ALR sulfhydryl oxidase, dose response, biochemical, H2O2 detection, luminescence, cherry-pick (AID 493248)
FAD-linked sulfhydryl oxidase ALR, sequence (P55789 whole entry): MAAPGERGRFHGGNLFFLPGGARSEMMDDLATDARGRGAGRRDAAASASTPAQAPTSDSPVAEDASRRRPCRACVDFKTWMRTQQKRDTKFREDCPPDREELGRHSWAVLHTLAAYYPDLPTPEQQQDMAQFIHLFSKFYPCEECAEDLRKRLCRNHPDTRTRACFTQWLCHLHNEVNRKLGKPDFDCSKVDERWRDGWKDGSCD

[11] = target: T4, Lysine-specific demethylase 4C (Homo sapiens, UniProt Q9H3R0); test: GASC-1 (JMJD2C) histone demethylase inhibitors, dose response, biochemical, DELFIA europium, cherry-picked samples (AID 488835); type: functional
T4 sequence (Q9H3R0 whole entry): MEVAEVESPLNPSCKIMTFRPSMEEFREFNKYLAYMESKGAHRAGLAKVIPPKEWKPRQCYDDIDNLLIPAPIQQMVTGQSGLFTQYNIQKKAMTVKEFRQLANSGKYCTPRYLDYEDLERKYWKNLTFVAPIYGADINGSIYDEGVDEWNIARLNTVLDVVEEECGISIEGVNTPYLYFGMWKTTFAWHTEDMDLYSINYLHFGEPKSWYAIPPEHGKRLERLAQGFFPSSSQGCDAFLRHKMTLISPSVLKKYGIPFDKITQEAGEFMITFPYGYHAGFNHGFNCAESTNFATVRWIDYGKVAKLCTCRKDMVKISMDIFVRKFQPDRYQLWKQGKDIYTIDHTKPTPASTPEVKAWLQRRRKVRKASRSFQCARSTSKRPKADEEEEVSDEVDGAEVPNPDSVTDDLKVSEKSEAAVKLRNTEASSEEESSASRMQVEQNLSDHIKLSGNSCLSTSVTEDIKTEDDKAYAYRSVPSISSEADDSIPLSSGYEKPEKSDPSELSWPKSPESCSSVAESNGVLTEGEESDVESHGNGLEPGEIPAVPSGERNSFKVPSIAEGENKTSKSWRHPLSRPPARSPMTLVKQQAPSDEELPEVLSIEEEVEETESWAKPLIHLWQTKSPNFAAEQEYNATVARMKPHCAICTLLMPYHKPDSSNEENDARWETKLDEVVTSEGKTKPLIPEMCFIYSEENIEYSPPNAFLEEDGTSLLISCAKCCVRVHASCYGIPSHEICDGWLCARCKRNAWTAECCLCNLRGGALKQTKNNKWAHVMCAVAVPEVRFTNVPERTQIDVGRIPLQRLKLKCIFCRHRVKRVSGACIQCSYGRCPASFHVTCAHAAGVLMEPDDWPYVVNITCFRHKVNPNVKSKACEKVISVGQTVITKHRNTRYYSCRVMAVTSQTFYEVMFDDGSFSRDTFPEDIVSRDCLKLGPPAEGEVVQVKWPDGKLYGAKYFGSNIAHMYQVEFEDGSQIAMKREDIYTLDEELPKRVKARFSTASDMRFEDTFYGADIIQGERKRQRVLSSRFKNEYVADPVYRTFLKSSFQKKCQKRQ

[12] = target: T5, Polyadenylate-binding protein 1 (Homo sapiens, UniProt P11940); test: PABP1 MLLE–PAM2 interaction inhibitors, dose response, miRNA deadenylation inhibitor project, biochemical, fluorescence polarization, Cy5-PAM2 peptide, secondary (AID 602260); type: functional; conditions: read-out: IC50_Mean
T5 sequence (P11940 whole entry): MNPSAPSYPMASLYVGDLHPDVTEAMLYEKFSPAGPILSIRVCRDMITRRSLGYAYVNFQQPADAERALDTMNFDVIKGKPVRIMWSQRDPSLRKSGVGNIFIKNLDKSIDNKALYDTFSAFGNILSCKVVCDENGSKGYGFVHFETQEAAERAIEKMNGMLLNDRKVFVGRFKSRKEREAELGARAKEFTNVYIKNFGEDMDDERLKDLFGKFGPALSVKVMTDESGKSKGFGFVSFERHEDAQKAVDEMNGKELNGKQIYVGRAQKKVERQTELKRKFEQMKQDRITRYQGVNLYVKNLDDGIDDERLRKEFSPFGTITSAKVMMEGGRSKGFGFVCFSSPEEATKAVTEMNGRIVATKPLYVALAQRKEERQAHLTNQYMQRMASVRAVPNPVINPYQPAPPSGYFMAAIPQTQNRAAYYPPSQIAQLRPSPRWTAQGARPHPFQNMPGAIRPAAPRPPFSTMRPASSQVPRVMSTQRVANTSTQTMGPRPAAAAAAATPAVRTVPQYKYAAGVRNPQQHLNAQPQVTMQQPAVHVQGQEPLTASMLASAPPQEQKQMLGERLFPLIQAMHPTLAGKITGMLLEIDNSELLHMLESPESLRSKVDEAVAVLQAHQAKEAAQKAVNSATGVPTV

[13] = target: T5, Polyadenylate-binding protein 1; test: PABP1 MLLE–PAM2 binding inhibitor potency, dose response, biochemical, fluorescence polarization, FITC-PAM2 peptide (AID 602259); type: functional; conditions: read-out: IC50_Mean
[14] = target: Ras and Rab interactor 1/Tyrosine-protein kinase ABL1 (Homo sapiens, UniProt P00519+Q13671); type: functional;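 further: biochemical TR-FRET dose-response test measuring inhibition of binding between Rin1 and Abl proteins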
Ras and Rab interactor 1/Tyrosine-protein kinase ABL1, sequence (P00519 whole entry): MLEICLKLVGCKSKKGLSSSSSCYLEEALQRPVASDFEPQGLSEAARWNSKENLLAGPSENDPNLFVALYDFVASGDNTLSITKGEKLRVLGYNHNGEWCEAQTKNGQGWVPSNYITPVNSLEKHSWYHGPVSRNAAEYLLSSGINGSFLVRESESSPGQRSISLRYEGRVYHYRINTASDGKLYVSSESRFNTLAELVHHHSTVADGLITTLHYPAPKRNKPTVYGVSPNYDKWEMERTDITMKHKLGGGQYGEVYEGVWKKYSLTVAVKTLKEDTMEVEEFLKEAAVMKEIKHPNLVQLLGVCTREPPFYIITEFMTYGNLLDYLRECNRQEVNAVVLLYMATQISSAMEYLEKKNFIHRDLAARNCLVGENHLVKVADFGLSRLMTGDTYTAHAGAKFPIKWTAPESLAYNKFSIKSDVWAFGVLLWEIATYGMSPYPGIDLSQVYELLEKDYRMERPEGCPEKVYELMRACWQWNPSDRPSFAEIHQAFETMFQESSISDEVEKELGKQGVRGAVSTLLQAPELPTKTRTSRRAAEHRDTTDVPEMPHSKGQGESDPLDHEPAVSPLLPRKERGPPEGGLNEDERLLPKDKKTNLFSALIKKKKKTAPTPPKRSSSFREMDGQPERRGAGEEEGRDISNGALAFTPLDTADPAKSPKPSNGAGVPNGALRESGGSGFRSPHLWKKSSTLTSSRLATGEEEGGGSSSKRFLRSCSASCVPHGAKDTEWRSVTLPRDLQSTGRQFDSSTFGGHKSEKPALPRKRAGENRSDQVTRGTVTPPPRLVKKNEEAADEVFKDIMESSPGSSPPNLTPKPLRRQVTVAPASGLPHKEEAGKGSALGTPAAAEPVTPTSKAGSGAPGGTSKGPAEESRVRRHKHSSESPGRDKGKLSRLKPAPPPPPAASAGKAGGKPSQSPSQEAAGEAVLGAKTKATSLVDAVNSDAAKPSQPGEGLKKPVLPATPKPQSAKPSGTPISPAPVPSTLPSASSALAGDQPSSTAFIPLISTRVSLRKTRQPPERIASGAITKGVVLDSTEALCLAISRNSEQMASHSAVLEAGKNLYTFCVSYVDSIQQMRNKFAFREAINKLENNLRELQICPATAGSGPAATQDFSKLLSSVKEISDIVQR
Ras and Rab interactor 1/Tyrosine-protein kinase ABL1, sequence (Q13671 whole entry): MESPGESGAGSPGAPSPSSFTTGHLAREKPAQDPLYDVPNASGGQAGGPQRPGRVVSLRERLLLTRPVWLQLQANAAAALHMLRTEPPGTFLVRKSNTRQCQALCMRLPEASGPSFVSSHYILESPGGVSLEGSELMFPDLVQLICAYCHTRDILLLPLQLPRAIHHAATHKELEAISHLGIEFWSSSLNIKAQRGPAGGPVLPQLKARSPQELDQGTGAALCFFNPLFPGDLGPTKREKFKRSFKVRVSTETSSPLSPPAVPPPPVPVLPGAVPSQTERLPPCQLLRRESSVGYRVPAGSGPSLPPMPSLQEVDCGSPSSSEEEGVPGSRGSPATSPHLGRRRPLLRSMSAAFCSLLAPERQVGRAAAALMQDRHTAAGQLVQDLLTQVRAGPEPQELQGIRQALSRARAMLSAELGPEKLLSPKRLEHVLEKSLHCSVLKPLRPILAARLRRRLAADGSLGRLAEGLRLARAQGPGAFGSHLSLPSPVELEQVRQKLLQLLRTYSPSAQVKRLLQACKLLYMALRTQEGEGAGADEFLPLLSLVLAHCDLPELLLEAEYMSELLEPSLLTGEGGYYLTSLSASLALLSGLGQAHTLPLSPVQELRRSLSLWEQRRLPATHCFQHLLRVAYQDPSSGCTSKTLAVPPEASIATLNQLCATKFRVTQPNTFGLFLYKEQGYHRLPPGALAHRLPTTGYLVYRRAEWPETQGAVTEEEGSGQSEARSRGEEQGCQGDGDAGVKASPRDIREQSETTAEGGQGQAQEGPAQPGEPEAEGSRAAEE

[15] = target: T3, Cytochrome P450 2C9; remark: listed apart in the source

Q: With CCCOc1ccc(Br)cc1CSC(=N)N as the molecule, how does the IC50 [1] read?
A: 15.9 µM (active)

Q: What about the AC50 [2] of the same molecule?
A: 6.45 µM (active)

Q: What about the IC50 [3] of the same molecule?
A: 9.88 µM (active)

Q: Which results are given for CCc1nnc(NC(=O)CSc2ncc(-c3ccccc3)n2C)s1?
A: EC50 [4]: > 150 µM (inactive); EC50 [5]: 1.3 µM (active); EC50 [6]: > 180 µM (inactive); EC50 [7]: 23.1 µM (active)

Q: For Cc1ccc(S(=O)(=O)NCCC2=CCCCC2)cc1C(N)=O, which IC50 [3] is on record?
A: 10.8 µM (active)

Q: What does the source list for C/C(Nc1c(C)n(C)n(-c2ccccc2)c1=O)=C1/C(=O)NC(=O)N(Cc2ccccc2)C1=O?
A: AC50 [8]: inconclusive; AC50 [9]: inconclusive

Q: Which AC50 [10] does the source give for c1ccc(-c2nc(-c3ccco3)cs2)nc1 here?
A: 0.593 µM (active)

Q: What about the AC50 [11] of the same molecule?
A: 20 µM (active)

Q: Which results are given for Cc1ccc(C)c(NC(S)=NNC(=O)c2csc(C(C)C)c2)c1?
A: EC50 [4]: > 150 µM (inactive); EC50 [5]: 0.907 µM (active); EC50 [6]: > 180 µM (inactive); EC50 [7]: > 160 µM (inactive); IC50 [12]: > 66 µM (inactive); IC50 [13]: > 66 µM (inactive)

Q: For CCOC(=O)CCCCC(=O)c1[nH]c(=O)[nH]c1CSCCO, which IC50 [14] is on record?
A: 0.695 µM (active)

Q: What does the source list for CN1CCN(c2ncc3nc(CCc4ccccc4)c(=O)n(C)c3n2)CC1?
A: AC50 [15]: 39.8 µM (inconclusive); AC50 [8]: inconclusive
